Here are results for 2 compounds from patent US9102628B2, “Derivatives of pyrazole 3,5-carboxylates, their preparation and their application in therapeutics” (SANOFI, priority 2007, dated 2015).

Each structure is given as a SMILES string.

The experiment has as its target T1, human recombinant soluble enzyme BACE1 (Homo sapiens, UniProt P56817).
T1 construct: purchased R&D Systems 931-AS
The experiment in a line: Test 1: Inhibition of soluble BACE1 (synthetic substrate S-10-R, HPLC/UV detection of cleavage product). Format: biochemical. The conditions noted are these: BACE1 20 nM, substrate S-10-R 350 μM, 1 hour at 37° C., sodium acetate/acetic acid buffer pH 4.5, 10% DMSO. An excerpt: Test 1: Inhibition of Soluble BACE1
This test uses soluble BACE1 and a synthetic substrate of BACE1.
The human recombinant soluble enzyme BACE1 is available from R&D Systems (reference 931-AS).
The synthetic peptide, made up of the amino acid sequence Ser-Glu-Val-Asn-Leu-Asp-Ala-Glu-Phe-Arg (S-10-R, available from NeoMPS, reference SP000122), is used as synthetic substrate of BACE1.
This synthetic substrate incorporates the cleavage site of BACE1 and fluorescent or chromogenic groups, so that the cleavage products can then be detected, either with UV after separation by HPLC, or by measurement of fluorescence or of optical density. In the present case, the cleavage product Asp-Ala-Glu-Phe-Arg, released during hydrolysis of S-10-R by BACE1, is quantified by UV detection [195 nm] after separation by HPLC with a gradient of acetonitrile from 2% to 100% [HP1100, Agilent; Column Atlantis dC18 (5 mm×2.1 mm; 3 μm)]. […]
The percentage inhibition of the activity of BACE1 by the compounds of the invention is determined as a function of the amount of cleavage product detected by HPLC: the smaller the amount of cleavage product detected, the greater the inhibitory activity of the compounds.
The values of IC50 are then calculated from the percentage inhibition previously determined, in relation to the concentration of the test compounds.

T1 sequence (P56817 46-457 limits assumed): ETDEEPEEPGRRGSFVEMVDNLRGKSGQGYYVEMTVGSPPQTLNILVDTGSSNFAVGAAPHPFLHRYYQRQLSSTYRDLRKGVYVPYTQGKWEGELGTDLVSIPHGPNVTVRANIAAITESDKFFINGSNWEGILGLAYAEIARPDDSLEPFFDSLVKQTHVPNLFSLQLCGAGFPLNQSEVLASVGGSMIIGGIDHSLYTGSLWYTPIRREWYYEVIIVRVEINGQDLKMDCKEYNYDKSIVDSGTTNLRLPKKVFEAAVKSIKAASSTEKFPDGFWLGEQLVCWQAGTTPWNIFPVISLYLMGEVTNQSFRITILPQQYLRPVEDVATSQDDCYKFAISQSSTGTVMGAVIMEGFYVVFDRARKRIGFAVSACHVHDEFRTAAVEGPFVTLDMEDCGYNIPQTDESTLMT

The IC50 is the midpoint of a concentration-inhibition curve. Turning to `CCCC1CCCCN1C(=O)c1cc(C(=O)N[C@@H](Cc2cc(F)cc(F)c2)[C@H](O)CNC2(c3cccc(C(F)(F)F)c3)CC2)nn1CC` (stereo partly drawn) [compound 53, N-{(1S,2R)-1-(3,5-difluorobenzyl)-2-hydroxy-3-({1-[3-(trifluoromethyl)phenyl]cyclopropyl}amino)propyl}-1-ethyl-5-[(2-propylpiperidin-1-yl)carbonyl]-1H-pyrazole-3-carboxamide], the IC50 is 0.073 µM. For `CCN(Cc1ccccc1)NC(=O)c1cc(C(=O)N[C@@H](Cc2ccccc2)[C@H](O)CNCc2cccc(C(F)(F)F)c2)nn1CC` [compound 69, 5-[(2-benzyl-2-ethylhydrazino)carbonyl]-N-[(1S,2R)-1-benzyl-2-hydroxy-3-{[3-(trifluoromethyl)benzyl]amino}propyl]-1-ethyl-1H-pyrazole-3-carboxamide] the value was 2 µM.
